≈ marks a conversion by molar mass, not a printed value. Starred links: 1 amine or outer side, 2 acyl side, 3 side chain; linkers in the order of their positions; H or OH if unused. Non-standard residues stand in square brackets, D forms with d. Residues, ends and D or L forms follow the SMILES beside them. *: point of attachment. Ethylenediamine = C(CN[*:2])N[*:1]; Palmitoyl = CCCCCCCCCCCCCCCC(=O)*; Lauroyl = CCCCCCCCCCCC(=O)*; Decanoyl = CCCCCCCCCC(=O)*; Octanoyl = CCCCCCCC(=O)*; Hexanoyl = CCCCCC(=O)*
Assays:
Type in all cases: cell-based
[1] = tested on: Staphylococcus aureus ATCC 29213; experiment: MIC, NCCLS M7-A6 broth microdilution, cation-adjusted Mueller Hinton broth (Table 9, no superscript); conditions: ATCC 29213
In short: (§1)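 Broth microdilution in cation-adjusted Mueller Hinton broth, log-phase inoculum giving 5×10^5 to 1×10^6 CFU/milliliter per well. Overnight incubation at 37° C. MIC taken as lowest peptide concentration with no visible turbidity versus a no-peptide control.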

[2] = tested on: Escherichia coli ATCC 25922; experiment: MIC, NCCLS M7-A6 broth microdilution (Table 9, no superscript); conditions: ATCC 25922
In short: as §1

[3] = tested on: Pseudomonas aeruginosa ATCC 27853; experiment: as above; conditions: ATCC 27853
In short: as §1

Salmonella dublin (Lane) = experiment: as above
In short: as §1

[4] = tested on: Staphylococcus epidermidis ATCC 12228; experiment: as above; conditions: ATCC 12228
In short: as §1

[5] = tested on: Propionibacterium acnes ATCC 6919; experiment: MIC, agar dilution method NCCLS M11-A6, Brucella agar, anaerobic (Table 9, superscript c); conditions: ATCC 6919
In short: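 Agar dilution per NCCLS M11-A6 on Brucella agar; final inoculum 1.5×10^8 CFU/milliliter applied to plates, incubated 48-96 hours at 37° C. under anaerobic (GasPak) conditions. MIC = lowest peptide concentration with no colony growth.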

[6] = tested on: Candida albicans ATCC 18804; experiment: MIC in yeasts, NCCLS M27-A2 broth microdilution, RPMI 1640 (Table 9, letter e); conditions: ATCC 18804
In short: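 Broth microdilution per NCCLS M27-A2 in RPMI 1640 with glutamine and phenol red, final inoculum 0.5×10^3–2.5×10^3 CFU/milliliter. Incubated 24 to 48 hours at 37° C; MIC is the lowest peptide concentration with no visible growth.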

| SMILES | MIC S. aureus [1] [µg/mL] | MIC E. coli [2] [µg/mL] | MIC P. aeruginosa [3] [µg/mL] | MIC S. dublin (Salmonella dublin (Lane)) [µg/mL] | MIC S. epidermidis [4] [µg/mL] | MIC P. acnes [5] [c ug/mL] | MIC C. albicans [6] [e ug/mL] |
| --- | --- | --- | --- | --- | --- | --- | --- |
| CCCCCCCCCCCC(=O)N[C@H](CO)C(=O)N[C@H](CCCNC(=N)N)C(=O)N[C@H](Cc1c[nH]c2ccccc12)C(=O)N[C@H](CCCNC(=N)N)C(=O)N[C@H](CC(=O)O)C(=O)N[C@@H](C(=O)N[C@H](C)C(=O)N[C@H](CCCNC(=N)N)C(=O)N[C@H](CC(N)=O)C(=O)N[C@H](Cc1ccccc1)C(=O)N[C@H](CCSC)C(=O)N[C@H](CCCNC(=N)N)C(N)=O)C(C)C [Peptide 131, Lauryl-srwrdvarnfmr-NH2] (Lauroyl-[dS][dR][dW][dR][dD][dV][dA][dR][dN][dF][dM][dR]-NH2) | 4 (≈ 2.25 µM) | 8 (≈ 4.51 µM) | 8 (≈ 4.51 µM) | 8 (≈ 4.51 µM) | 2 (≈ 1.13 µM) | 2 | 16 |
| CCCCCCCCCCCC(=O)N[C@@H](CCCNC(=N)N)C(=O)N[C@@H](CO)C(=O)N[C@@H](CCCNC(=N)N)C(=O)N[C@@H](Cc1c[nH]c2ccccc12)C(=O)N[C@@H](CCCNC(=N)N)C(=O)N[C@@H](CC(=O)O)C(=O)N[C@H](C(=O)N[C@@H](C)C(=O)N[C@@H](CCCNC(=N)N)C(=O)N[C@@H](CC(N)=O)C(=O)N[C@@H](Cc1ccccc1)C(N)=O)C(C)C [Peptide 99, Lauryl-RSRWRDVARNF-NH2] (Lauroyl-RSRWRDVARNF-NH2) | 4 (≈ 2.43 µM) | 32 (≈ 19.5 µM) | >64 | >64 | 4 (≈ 2.43 µM) | >64 | 32 |
| CCCCCCCC(=O)NCCCC[C@@H](NC(=O)[C@@H](CCCNC(=N)N)NC(=O)[C@@H](CC(C)C)NC(=O)[C@@H](Cc1ccccc1)NC(=O)[C@@H](CC(N)=O)NC(=O)[C@@H](CCCNC(=N)N)NC(=O)[C@@H](C)NC(=O)[C@H](NC(=O)[C@@H](CC(=O)O)NC(=O)[C@@H](CCCNC(=N)N)NC(=O)[C@@H](Cc1c[nH]c2ccccc12)NC(=O)[C@@H](CCCNC(=N)N)NC(=O)[C@@H](CO)NC(=O)[C@H](N)CCCNC(=N)N)C(C)C)C(N)=O [Peptide 193, H2N-rsrwrdvarnflrk(Octanyl)-NH2] (H-[dR][dS][dR][dW][dR][dD][dV][dA][dR][dN][dF][dL][dR][dK](Octanoyl)-NH2) | 16 (≈ 8.06 µM) | 8 (≈ 4.03 µM) | 16 (≈ 8.06 µM) | 16 (≈ 8.06 µM) | 2 (≈ 1.01 µM) | 8 | 32 |
| CCCCCC(=O)NCCNC(=O)[C@H](CCCNC(=N)N)NC(=O)[C@H](CCSC)NC(=O)[C@H](Cc1ccccc1)NC(=O)[C@H](CC(N)=O)NC(=O)[C@H](CCCNC(=N)N)NC(=O)[C@H](C)NC(=O)[C@@H](NC(=O)[C@H](CC(=O)O)NC(=O)[C@H](CCCNC(=N)N)NC(=O)[C@H](Cc1c[nH]c2ccccc12)NC(=O)[C@H](CCCNC(=N)N)NC(=O)[C@H](CO)NC(=O)[C@@H](N)CCCNC(=N)N)C(C)C [Peptide 173, H2N-RSRWRDVARNFMR-Ethylamidohexanyl] (H-RSRWRDVARNFMR-{Ethylenediamine-Hexanoyl}; C-terminus assumed) | 16 (≈ 8.46 µM) | 8 (≈ 4.23 µM) | 16 (≈ 8.46 µM) | 32 (≈ 16.9 µM) | 2 (≈ 1.06 µM) | >64 | 64 |
| CCCCCCCCCCCC(=O)NCCCC[C@H](NC(=O)[C@H](CCCNC(=N)N)NC(=O)[C@H](CC(C)C)NC(=O)[C@H](Cc1ccccc1)NC(=O)[C@H](CC(N)=O)NC(=O)[C@H](CCCNC(=N)N)NC(=O)[C@H](C)NC(=O)[C@@H](NC(=O)[C@H](CC(=O)O)NC(=O)[C@H](CCCNC(=N)N)NC(=O)[C@H](Cc1c[nH]c2ccccc12)NC(=O)[C@H](CCCNC(=N)N)NC(=O)[C@H](CO)NC(=O)[C@@H](N)CCCNC(=N)N)C(C)C)C(N)=O [Peptide 181, H2N-RSRWRDVARNFLRK(Lauryl)-NH2] (H-RSRWRDVARNFLRK(Lauroyl)-NH2) | 4 (≈ 1.96 µM) | 4 (≈ 1.96 µM) | 4 (≈ 1.96 µM) | 16 (≈ 7.84 µM) | 1 (≈ 0.49 µM) | 64 | 8 |
| CCCCCCCCCCCC(=O)NCCCC[C@@H](NC(=O)[C@@H](CCCNC(=N)N)NC(=O)[C@@H](CC(C)C)NC(=O)[C@@H](Cc1ccccc1)NC(=O)[C@@H](CC(N)=O)NC(=O)[C@@H](CCCNC(=N)N)NC(=O)[C@@H](C)NC(=O)[C@H](NC(=O)[C@@H](CC(=O)O)NC(=O)[C@@H](CCCNC(=N)N)NC(=O)[C@@H](Cc1c[nH]c2ccccc12)NC(=O)[C@@H](CCCNC(=N)N)NC(=O)[C@@H](CO)NC(=O)[C@H](N)CCCNC(=N)N)C(C)C)C(N)=O [Peptide 195, H2N-rsrwrdvarnflrk(Lauryl)-NH2] (H-[dR][dS][dR][dW][dR][dD][dV][dA][dR][dN][dF][dL][dR][dK](Lauroyl)-NH2) | 2 (≈ 0.98 µM) | 4 (≈ 1.96 µM) | 4 (≈ 1.96 µM) | 4 (≈ 1.96 µM) | 1 (≈ 0.49 µM) | 8 | 8 |

Further lines, results first:

| MIC S. aureus [1] [µg/mL] | MIC E. coli [2] [µg/mL] | MIC P. aeruginosa [3] [µg/mL] | MIC S. dublin (Salmonella dublin (Lane)) [µg/mL] | MIC S. epidermidis [4] [µg/mL] | MIC P. acnes [5] [c ug/mL] | MIC C. albicans [6] [e ug/mL] | SMILES |
| --- | --- | --- | --- | --- | --- | --- | --- |
| 2 (≈ 1.06 µM) | 2 (≈ 1.06 µM) | 4 (≈ 2.12 µM) | 8 (≈ 4.24 µM) | 1 (≈ 0.53 µM) | 2 | 16 | CCCCCCCCCC(=O)N[C@H](CCCNC(=N)N)C(=O)N[C@H](CO)C(=O)N[C@H](CCCNC(=N)N)C(=O)N[C@H](Cc1c[nH]c2ccccc12)C(=O)N[C@H](CCCNC(=N)N)C(=O)N[C@H](CC(=O)O)C(=O)N[C@@H](C(=O)N[C@H](C)C(=O)N[C@H](CCCNC(=N)N)C(=O)N[C@H](CC(N)=O)C(=O)N[C@H](Cc1ccccc1)C(=O)N[C@H](CC(C)C)C(=O)N[C@H](CCCNC(=N)N)C(N)=O)C(C)C [Peptide 253, Decanyl-rsrwrdvarnflr-NH2] (Decanoyl-[dR][dS][dR][dW][dR][dD][dV][dA][dR][dN][dF][dL][dR]-NH2) |
| 16 (≈ 8.81 µM) | 16 (≈ 8.81 µM) | 32 (≈ 17.6 µM) | 64 (≈ 35.2 µM) | 4 (≈ 2.2 µM) | 8 | 64 | CCCCCCCCCCCC(=O)N[C@H](CCCNC(=N)N)C(=O)N[C@H](CO)C(=O)N[C@H](CCCNC(=N)N)C(=O)N[C@H](C)C(=O)N[C@H](CCCNC(=N)N)C(=O)N[C@H](CC(=O)O)C(=O)N[C@@H](C(=O)N[C@H](C)C(=O)N[C@H](CCCNC(=N)N)C(=O)N[C@H](CC(N)=O)C(=O)N[C@H](Cc1ccccc1)C(=O)N[C@H](CCSC)C(=O)N[C@H](CCCNC(=N)N)C(N)=O)C(C)C [Peptide 239, Lauryl-rsrardvarnfmr-NH2] (Lauroyl-[dR][dS][dR][dA][dR][dD][dV][dA][dR][dN][dF][dM][dR]-NH2) |
| 16 (≈ 7.56 µM) | 32 (≈ 15.1 µM) | >64 | 16 (≈ 7.56 µM) | 2 (≈ 0.945 µM) | 16 | 2 | CCCCCCCCCCCCCCCC(=O)NCCCC[C@@H](NC(=O)[C@@H](CCCNC(=N)N)NC(=O)[C@@H](CCSC)NC(=O)[C@@H](Cc1ccccc1)NC(=O)[C@@H](CC(N)=O)NC(=O)[C@@H](CCCNC(=N)N)NC(=O)[C@@H](C)NC(=O)[C@H](NC(=O)[C@@H](CC(=O)O)NC(=O)[C@@H](CCCNC(=N)N)NC(=O)[C@@H](Cc1c[nH]c2ccccc12)NC(=O)[C@@H](CCCNC(=N)N)NC(=O)[C@@H](CO)NC(=O)[C@H](N)CCCNC(=N)N)C(C)C)C(N)=O [Peptide 201, H2N-rsrwrdvarnfmrk(Palmitoyl)-NH2] (H-[dR][dS][dR][dW][dR][dD][dV][dA][dR][dN][dF][dM][dR][dK](Palmitoyl)-NH2) |

Reference: patent US20050282755A1, “Compositions having antimicrobial activity and uses thereof” (priority 2004, published 2005)
